Measured values taken from patent US20110009332A1, “Therapeutic Treatment Of Wounds” (SOUTHWEST RESEARCH INSTITUTE, priority 2009, published 2011).
Where a SMILES comes first, the peptide text is derived from it. The star is where a group is joined. Cbz = O=C(OCc1ccccc1)*; OtBu = CC(C)(C)O*

Test system: TGF-β1 protein expression in human dermal fibroblast cells
Experiment: TGF-β1 protein expression in normal and PMA-challenged human dermal fibroblasts
Format: cell-based
Settings: PS-1 0 nM to 10000 nM
Experimental: Cyto-toxicity analysis was performed to illustrate the inhibition of TGF-131 in human dermal fibroblasts. Both normal human dermal fibroblast cells (i.e., undamaged or non-wounded skin cells) and challenged (damaged) human dermal fibroblast cells were treated with concentrations of PS-1 ranging from 0 nM to 10000 nM and the effect of the various PS-1 concentrations on the normal and challenged cells was measured. It is noted that the challenged human dermal fibroblast cells were treated in vitro with 10 nM of phorbol 12-myristate 13-acetate (PMA) to simulate wounding. […] FIG. 11 illustrates TGF-131 protein expression upon addition of PS-1 in cells challenged by the addition of the 10 nM of PMA.

Structure (SMILES): CC[C@H](C)[C@H](NC(=O)OCc1ccccc1)C(=O)N[C@@H](CCC(=O)OC(C)(C)C)C(=O)N[C@@H](C)C(=O)N[C@H](C=O)CC(C)C [PS-1, Z-Ile-Glu(OBu^t)-Ala-Leu-H] (Cbz-IE(OtBu)AL-aldehyde)
- TGF-β1 protein expression (in words) (cells challenged with 10 nM PMA, FIG. 11): reduced TGF-β1 protein expression to similar levels seen in normal cells
- TGF-β1 protein expression (in words) (normal human dermal fibroblast cells, FIG. 10): relatively little change in TGF-β1 protein expression
